In patent publication US8530461B2 (Boehringer Ingelheim International GmbH, priority 2011, dated 2013):
pIC50: −log10 of the molar value.

Target: T1, human ACC2 (Homo sapiens, UniProt O00763)
T1 construct: made in house; host or cells: insect cells (baculoviral expression system)
Assay: ACC2 assay, spectrophotometric 384 well assay (NADH-linked, coupled lactate dehydrogenase/pyruvate kinase)
Assay type: biochemical
Settings: ACC2 assay; human ACC2 construct lacking 128 N-terminal amino acids; 25° C., 340 nm, 15 minutes; read-out: IC50
Experimental: Spectrophotometric 384 Well Assay
Malonyl CoA formation by acetyl CoA carboxylases is stoichometrically linked to the consumption of ATP. ACC2 activity is measured in a NADH-linked kinetic method measuring ADP generated during the ACC reaction using a coupled lactate dehydrogenase/pyruvate kinase reaction.
For biological testing, a human ACC2 construct which lacks the 128 amino acids at the N-terminus for increased solubility (nt 385-6966 in Genbank entry AJ575592) is cloned. The protein is then expressed in insect cells using a baculoviral expression system. Protein purification is performed by anion exchange.
All compounds are dissolved in dimethyl sulfoxide (DMSO) to a concentration of 10 mM.
Assay reactions are then carried out in 384-well plates, with hACC2 in an appropriate dilution and at final assay concentrations (f.c.) of 100 mM Tris (pH 7.5), 10 mM trisodium citrate, 25 mM KHCO3, 10 mM MgCl2, 0.5 mg/ml BSA, 3.75 mM reduced L-glutathione, 15 U/ml lactate dehydrogenase, 0.5 mM phosphoenolpyruvate, 15 U/ml pyruvate kinase, compounds at different concentrations at final DMSO concentrations of 1%.
The enzymatic reaction is then started by addition of a mixture of NADH, acetyl Coenzyme A (both […].) and ATP (500 uM f.c.). The decrease of the optical density (slope S) is then determined at 25° C. at a wavelength of 340 nm over 15 minutes in a spectrophotometric reader.
Each assay microtiter plate contains wells with vehicle instead of compound as controls for the non-inhibited enzyme (100% CTL; ‘HIGH’) and wells without acetyl-CoA as controls for non-specific NADH degradation (0% CTL; ‘LOW’).
The slope S is used for calculation of % CTL=(S(compound)−S(‘LOW’))/(S(‘HIGH’)−S(‘LOW’))100. Compounds will give values between 100% CTL (no inhibition) and 0% CTL (complete inhibition).
For IC50 value determination, the sample slope in the presence of the test compound after subtraction of the low controls (S(compound)−S(‘LOW’)) are used.
An IC50 value is derived from the compound slopes at different dosages after subtraction of the low controls (S(compound)−S(‘LOW’)) by non-linear regression curve fitting (equation y=(A+((B−A)/(1+((C/x)^D))))).

T1 sequence (O00763 129-2458 limits assumed): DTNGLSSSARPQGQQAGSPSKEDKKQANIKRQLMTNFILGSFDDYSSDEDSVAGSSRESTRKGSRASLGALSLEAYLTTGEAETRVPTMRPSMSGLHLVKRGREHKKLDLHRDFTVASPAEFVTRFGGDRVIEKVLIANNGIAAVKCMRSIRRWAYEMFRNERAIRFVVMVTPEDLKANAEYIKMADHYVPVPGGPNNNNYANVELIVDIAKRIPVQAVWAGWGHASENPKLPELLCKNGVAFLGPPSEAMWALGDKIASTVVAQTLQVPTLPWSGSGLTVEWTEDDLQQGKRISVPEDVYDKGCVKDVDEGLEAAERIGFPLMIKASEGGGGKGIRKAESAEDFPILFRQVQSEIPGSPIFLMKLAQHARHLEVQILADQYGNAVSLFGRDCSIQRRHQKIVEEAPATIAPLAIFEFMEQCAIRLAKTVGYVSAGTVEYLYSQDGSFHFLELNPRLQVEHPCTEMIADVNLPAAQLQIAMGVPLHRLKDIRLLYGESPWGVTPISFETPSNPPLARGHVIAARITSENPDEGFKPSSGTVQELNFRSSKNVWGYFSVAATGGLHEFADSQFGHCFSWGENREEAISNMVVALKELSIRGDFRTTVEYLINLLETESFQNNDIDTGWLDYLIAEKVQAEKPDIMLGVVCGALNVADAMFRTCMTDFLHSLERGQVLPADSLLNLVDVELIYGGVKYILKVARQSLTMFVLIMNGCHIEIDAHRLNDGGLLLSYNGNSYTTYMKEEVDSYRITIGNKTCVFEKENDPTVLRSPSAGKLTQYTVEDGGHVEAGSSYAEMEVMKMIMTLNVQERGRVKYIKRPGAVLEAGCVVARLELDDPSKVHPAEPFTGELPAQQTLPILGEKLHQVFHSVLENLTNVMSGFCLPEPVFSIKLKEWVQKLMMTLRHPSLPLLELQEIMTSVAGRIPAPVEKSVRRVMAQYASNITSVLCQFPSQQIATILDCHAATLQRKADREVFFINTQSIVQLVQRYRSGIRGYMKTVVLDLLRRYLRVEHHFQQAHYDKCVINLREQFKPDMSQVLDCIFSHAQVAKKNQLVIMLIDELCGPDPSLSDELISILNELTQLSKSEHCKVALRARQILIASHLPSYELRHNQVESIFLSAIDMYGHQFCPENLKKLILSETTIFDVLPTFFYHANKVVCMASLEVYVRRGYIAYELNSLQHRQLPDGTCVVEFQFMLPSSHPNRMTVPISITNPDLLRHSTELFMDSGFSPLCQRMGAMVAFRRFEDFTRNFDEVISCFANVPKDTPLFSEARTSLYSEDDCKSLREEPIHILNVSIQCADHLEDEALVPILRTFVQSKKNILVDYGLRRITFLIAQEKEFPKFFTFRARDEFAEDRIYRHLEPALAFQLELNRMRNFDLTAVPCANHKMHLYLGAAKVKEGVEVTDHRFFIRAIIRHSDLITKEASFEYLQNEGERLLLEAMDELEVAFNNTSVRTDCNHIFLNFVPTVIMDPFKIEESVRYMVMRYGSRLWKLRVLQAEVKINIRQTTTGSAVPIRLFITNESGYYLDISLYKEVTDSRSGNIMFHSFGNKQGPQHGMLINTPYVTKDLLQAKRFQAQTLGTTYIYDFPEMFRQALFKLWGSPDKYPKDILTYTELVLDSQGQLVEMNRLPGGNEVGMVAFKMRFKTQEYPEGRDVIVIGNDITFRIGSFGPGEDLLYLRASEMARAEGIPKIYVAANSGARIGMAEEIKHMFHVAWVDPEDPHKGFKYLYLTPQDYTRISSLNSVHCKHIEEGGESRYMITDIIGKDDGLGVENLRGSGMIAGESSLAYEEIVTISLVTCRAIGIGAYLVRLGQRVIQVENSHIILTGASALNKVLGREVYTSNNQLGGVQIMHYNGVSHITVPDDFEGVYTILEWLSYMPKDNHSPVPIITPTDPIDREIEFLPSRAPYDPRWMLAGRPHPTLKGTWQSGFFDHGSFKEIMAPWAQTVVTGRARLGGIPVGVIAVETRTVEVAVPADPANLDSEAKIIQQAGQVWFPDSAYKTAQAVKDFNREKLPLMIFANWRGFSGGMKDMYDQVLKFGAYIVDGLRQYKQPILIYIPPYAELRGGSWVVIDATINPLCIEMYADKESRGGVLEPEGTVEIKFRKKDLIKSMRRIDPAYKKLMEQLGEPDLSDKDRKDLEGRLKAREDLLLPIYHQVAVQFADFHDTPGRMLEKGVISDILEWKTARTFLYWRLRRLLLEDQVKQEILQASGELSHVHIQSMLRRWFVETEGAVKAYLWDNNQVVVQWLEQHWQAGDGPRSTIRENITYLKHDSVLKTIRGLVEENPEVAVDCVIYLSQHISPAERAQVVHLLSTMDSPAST

Structure (SMILES) | pIC50
CCOc1ccc(OC2CN(c3ccc([C@H](C)NC(=O)C4(C)CCC4)cc3)C2)cc1 [Example 1.1, (S)-1-Methyl-cyclobutanecarboxylic acid (1-{4-[3-(4-ethoxy-phenoxy)-azetidin-1-yl]-phenyl}-ethyl)-amide] | 5.59
CCOc1ccc(OC2CN(c3ccc([C@H](C)NC(=O)CC)cc3)C2)cc1 [Example 1.2] | 6.82
CCOc1ccc(OC2CN(c3ccc([C@H](C)NC(=O)COC)cc3)C2)cc1 [Example 1.3] | 5.98
CCOc1ccc(OC2CN(c3ccc([C@H](C)NC(=O)C(C)C)cc3)C2)cc1 [Example 1.5] | 6.92
CCCC(=O)N[C@@H](C)c1ccc(N2CC(Oc3ccc(OCC)cc3)C2)cc1 [Example 1.6] | 6.55
CCOc1ccc(OC2CN(c3ccc([C@H](C)NC(=O)C4CCC4)cc3)C2)cc1 [Example 1.7] | 6.77
CCOc1ccc(OC2CN(c3ccc([C@H](C)NC(=O)C4CCCC4)cc3)C2)cc1 [Example 1.8] | 6.26
CCOc1ccc(OC2CN(c3ccc([C@H](C)NC(=O)C4CC4C)cc3)C2)cc1 (some centres unmarked) [Example 1.9] | 6.34
CCOc1ccc(OC2CN(c3ccc([C@H](C)NC(=O)C4(O)CC4)cc3)C2)cc1 [Example 1.10] | 5.50
CCOc1ccc(OC2CN(c3ccc([C@H](C)NC(=O)c4cn[nH]c4)cc3)C2)cc1 [Example 1.11] | 6.68
CCOc1ccc(OC2CN(c3ccc([C@H](C)NC(=O)C4(C)CC4)cc3)C2)cc1 [Example 1.12] | 6.64
CCOc1ccc(OC2CN(c3ccc([C@H](C)NC(=O)Cn4ccnc4)cc3)C2)cc1 [Example 1.13] | 6.32
CCOc1ccc(OC2CN(c3ccc([C@H](C)NC(=O)c4conc4C)cc3)C2)cc1 [Example 1.14] | 7.15
CCOc1ccc(OC2CN(c3ccc([C@H](C)NC(=O)CC4CC4)cc3)C2)cc1 [Example 1.15] | 5.59
CCOc1ccc(OC2CN(c3ccc([C@H](C)NC(=O)C(C)(C)F)cc3)C2)cc1 [Example 1.17] | 6.55
CCOc1ccc(OC2CN(c3ccc([C@H](C)NC(=O)C4(C#N)CC4)cc3)C2)cc1 [Example 1.18] | 6.47
CCOc1ccc(OC2CN(c3ccc([C@H](C)NC(=O)C4CC(OC)C4)cc3)C2)cc1 (some centres unmarked) [Example 1.19] | 6.23
CCOc1ccc(OC2CN(c3ccc([C@H](C)NC(=O)c4cocn4)cc3)C2)cc1 [Example 1.20] | 6.48
CCOc1ccc(OC2CN(c3ccc([C@H](C)NC(=O)c4cnn(C)c4)cc3)C2)cc1 [Example 1.21] | 6.32
CCOc1ccc(OC2CN(c3ccc([C@H](C)NC(=O)Cc4cncnc4)cc3)C2)cc1 [Example 1.22] | 6.35
CCOc1ccc(OC2CN(c3ccc([C@H](C)NC(=O)C4(C)COC4)cc3)C2)cc1 [Example 1.23] | 5.83
CCOc1ccc(OC2CN(c3ccc([C@H](C)NC(=O)C4CC(F)C4)cc3)C2)cc1 (some centres unmarked) [Example 1.24] | 6.66
CCOc1ccc(OC2CN(c3ccc([C@H](C)NC(=O)c4ccncc4)cc3)C2)cc1 [Example 1.26] | 5.91
CCOc1ccc(OC2CN(c3ccc([C@H](C)NC(=O)c4cccnc4)cc3)C2)cc1 [Example 1.27] | 5.71
CCOc1ccc(OC2CN(c3ccc([C@H](C)NC(=O)CO)cc3)C2)cc1 [Example 1.28] | 6.00
CCOc1ccc(OC2CN(c3ccc([C@H](C)NC(=O)c4c[nH]cn4)cc3)C2)cc1 [Example 1.29] | 5.94
CCOc1ccc(OC2CN(c3ccc([C@H](C)NC(=O)c4c(C)noc4N)cc3)C2)cc1 [Example 1.30] | 6.13
CCOc1ccc(OC2CN(c3ccc([C@H](C)NC(=O)c4cc(C)nn4C)cc3)C2)cc1 [Example 1.31] | 5.76

Structure (SMILES) | pIC50
CCOc1ccc(OC2CN(c3ccc([C@H](C)NC(=O)c4sc(NC(C)=O)nc4C)cc3)C2)cc1 [Example 1.32] | 7.30
CCOc1ccc(OC2CN(c3ccc([C@H](C)NC(=O)c4cn(C)cn4)cc3)C2)cc1 [Example 1.33] | 5.60
CCOc1ccc(OC2CN(c3ccc([C@H](C)NC(=O)c4cncn4C)cc3)C2)cc1 [Example 1.34] | 5.69
CCOc1ccc(OC2CN(c3ccc([C@H](C)NC(=O)c4ocnc4C)cc3)C2)cc1 [Example 1.35] | 6.40
CCOc1ccc(OC2CN(c3ccc([C@H](C)NC(=O)c4ccon4)cc3)C2)cc1 [Example 1.36] | 5.79
CCOc1ccc(OC2CN(c3ccc([C@H](C)NC(=O)c4cnco4)cc3)C2)cc1 [Example 1.37] | 6.77
CCOc1ccc(OC2CN(c3ccc([C@H](C)NC(=O)c4scnc4C)cc3)C2)cc1 [Example 1.38] | 6.11
CCOc1ccc(OC2CN(c3ccc([C@H](C)NC(=O)c4oc(C)nc4C)cc3)C2)cc1 [Example 1.39] | 5.65
CCOc1ccc(OC2CN(c3ccc([C@H](C)NC(=O)C(C)(C)OC)cc3)C2)cc1 [Example 1.40] | 5.19
CCOc1ccc(OC2CN(c3ccc([C@H](C)NC(=O)c4cnc(C)s4)cc3)C2)cc1 [Example 1.41] | 5.97
CCOc1ccc(OC2CN(c3ccc([C@H](C)NC(=O)c4occc4C)cc3)C2)cc1 [Example 1.42] | 5.77
CCOc1ccc(OC2CN(c3ccc([C@H](C)NC(=O)C(C)F)cc3)C2)cc1 (some centres unmarked) [Example 1.43] | 6.49
CCOc1ccc(OC2CN(c3ccc([C@H](C)NC(=O)c4csc(NC(C)=O)n4)cc3)C2)cc1 [Example 1.44] | 6.21
CCOc1ccc(OC2CN(c3ccc([C@H](C)NC(=O)c4cc(=O)[nH]cn4)cc3)C2)cc1 [Example 1.45] | 5.70
CCOc1ccc(OC2CN(c3ccc([C@H](C)NC(=O)C4CC(=O)N(C)C4)cc3)C2)cc1 (some centres unmarked) [Example 1.46] | 5.76
CCOc1ccc(OC2CN(c3ccc([C@H](C)NC(=O)Cc4c[nH]cn4)cc3)C2)cc1 [Example 1.47] | 5.88
CCOc1ccc(OC2CN(c3ccc([C@H](C)NC(=O)c4ccc5c(c4)nnn5C)cc3)C2)cc1 [Example 1.48] | 5.47
CCOc1ccc(OC2CN(c3ccc([C@H](C)NC(=O)Cc4cc[nH]c4)cc3)C2)cc1 [Example 1.49] | 5.83
CCOc1ccc(OC2CN(c3ccc([C@H](C)NC(=O)c4nc(C)sc4C)cc3)C2)cc1 [Example 1.50] | 5.97
CCOc1ccc(OC2CN(c3ccc([C@H](C)NC(=O)C4CC=CC4)cc3)C2)cc1 [Example 1.51] | 7.15
CCOc1ccc(OC2CN(c3ccc([C@H](C)NC(=O)Cc4cccnc4)cc3)C2)cc1 [Example 1.52] | 6.01
CCOc1ccc(OC2CN(c3ccc([C@H](C)NC(=O)C(C)(F)F)cc3)C2)cc1 [Example 1.53] | 7.15
CCOc1ccc(OC2CN(c3ccc([C@H](C)NC(=O)Cc4cc(C)no4)cc3)C2)cc1 [Example 1.54] | 6.27
CCOc1ccc(OC2CN(c3ccc([C@H](C)NC(=O)CCCNC(C)=O)cc3)C2)cc1 [Example 1.55] | 6.36
CCOc1ccc(OC2CN(c3ccc([C@H](C)NC(=O)C4CNC(=O)C4)cc3)C2)cc1 (some centres unmarked) [Example 1.57] | 5.89
CCOc1ccc(OC2CN(c3ccc([C@H](C)NC(=O)c4cnc(NC)nc4)cc3)C2)cc1 [Example 1.58] | 5.41
CCOc1ccc(OC2CN(c3ccc([C@H](C)NC(=O)C4CCC(=O)N4)cc3)C2)cc1 (some centres unmarked) [Example 1.59] | 5.69

Same assay, conditions: IC50, ACC2 assay; human ACC2 construct lacking 128 N-terminal amino acids; 25° C., 340 nm, 15 minutes

Structure (SMILES) | pIC50
CCOc1ccc(OC2CN(c3ccc([C@H](C)NC(=O)CF)cc3)C2)cc1 [Example 1.16] | 6.96
